Test results published in patent US20030220363A1, “Use of propionyl L-carnitine for the preparation of a medicament capable of inducing apoptosis” (SIGMA-TAU INDUSTRIE FARMACEUTICHE RIUNITE S.p.A., priority 1998, published 2003).
Marks after values point to notes of the source that are not given here.

Legend:
[1] = tested on: smooth muscle cells of rat aorta; test: In vivo proliferation of smooth muscle cells of rat aorta after mechanical de-endothelialization (anti-BrDU positive nuclei); parameters: species or system Wistar rat; conditions: for +Nuclei/total nuclei % (anti-bromodeoxyuridine positive): 15 days after de-endothelialization, PLC 120 mg/Kg or Enalapril 1 mg/Kg p.c. die, ± s.e.m., preliminary results
Protocol: (§1) Wistar male rats, weighing between […], were used for the experiments. The rats were anaesthetised with Nembutal i.p. (35 mg/kg body weight) and the thoracic portion of aorta was submitted to endothelium mechanical removal with Fogarty 2F balloon probe (Baxter USA), according to the Baugartner and Studer method(1966) with minor modification (Orlandi 1994).
(§2) Two groups were subjected to pharmacological treatment with propionyl L-carnitine (PLC, 120 mg/Kg p.c. die), one group was treated with an ACE-inhibitor (Enalapril, 1 mg/Kg p.c. die); the two remaining groups were the control. Moreover, some non-balloonized animals were used as blanks.
The animals were sacrificed 3 and 15 days after de-endothelialization. Two hours before sacrifice, all the rats received i.v. a Bromodeoxyuridine solution (BrDU) (45 mg/kg body weight) in order to verify cell proliferation. One hour before sacrifice, some randomly selected animals received 1 ml Blue Evans (1% in 0.9% NaCl solution) in order to evaluate the degree of aorta disruption.
At sacrifice, the animals were anaesthetised with i.p. Nembutal and perfused, after washing with isotonic saline containing 3% Dextran 70, with buffered formalin for 20 minutes. Aortae were isolated, slightly washed in saline and dissected longitudinally. Carotid, heart and small intestine were also excised. All the organs were post-fixed in the same fixative for 24 hours at room temperature.
In order to put in evidence proliferating cells in damaged arteries, serial sections in paraffin of aortae were deparaffined, rehydrated, immersed in a 3% H2O2 solution for 20 minutes and incubated with trypsine (0.05 M in Tris-HCl, pH 7.6) at 37° C. After that, sections were treated with 2N HCl at 37° C. for 30 minutes, washed with 0.1 M sodium tetraborate for 10 minutes, incubated with normal horse serum (Vector) and subsequently with and-BrDU monoclonal antibody (Ylem) for 1 hour. The preparates were then reacted with biotilinated anti-mouse IgG (Vector) and the Streptoavidine-ABC-POD complex (Ylem).
The reaction was evidenced by using diaminobenzidine (DAB) as final chromogen. The count of positive nuclei for BrDU was made on the total number of nuclei. Such count was blind-made by two researchers separately. The difference between the two counts was always lower than 0.5%.
All data were analysed with the T Student's test. The differences between the groups were considered to be significant for P<0.05.

[2] = tested on: rat aorta intima; test: Morphometric analysis of intima thickening after mechanical de-endothelialization; assay type: in vivo, Wistar rat; conditions: 15 days after de-endothelialization, PLC 120 mg/Kg or Enalapril 1 mg/Kg p.c. die; for Intima volume/wall (percentage ratio between intima volume and aorta wall volume): ± s.e.m., preliminary results
Protocol: as §1, §2
The entity of intima thickening after 15 days was evaluated on Verhoeff-Van Gieson stained sections, using a grid overlapped on the image, consisting of 400 points, 1 cm from each other.
The analysis was made on hystological preparates through a Hamamatsu C3077 camera controlled by a Hamamatsu DVS 3000 image analyser and connected to a Polyvar-Reichert microscope. Morphometric evaluation was made at X116 magnification. The following parameters were evaluated a) relative volume of intima referred to arterial wall; b) relative volume of tunica media referred to arterial wall, by counting the overlapping points on the intima and mean tunica.
3-12 aorta sections were used at different level for each animal. This number was a function of the structure sizes, according to Sach's formula, showing the number of fields necessary to obtain a statistically significant sample.

[3] = tested on: smooth muscular cells (SMC) isolated from aortae of spontaneously hypertensive rats (SHR); test: Apoptotic cell count after Hoechst 33258 staining, SHR SMC; assay type: cell-based, rat
Protocol: (§3) In vitro experiments were carried out to evaluate the effect of propionyl L-carnitine (PLC) on smooth muscular cells (SMC) isolated from aortae of spontaneously hypertensive rats (SHR) and, as control, on SMC isolated from normotensive rats (WKY).
(§4) As a further characterisation of smooth muscular cells in the presence of PLC, the percentage of apoptotic cells was measured both in basal conditions and in oxidative stress conditions. Apoptosis evaluation was carried out by counting the number of apoptotic cells present on a total of 1000 cells, after specific DNA staining with Hoechst 33258.

[4] = tested on: smooth muscular cells (SMC) isolated from aortae of spontaneously hypertensive rats (SHR); test: DNA synthesis by tritiated thymidine incorporation, SHR SMC; assay type: cell-based, rat; conditions: culture day 6
Protocol: as §3
(§5) These in vitro studies evidenced that PLC, when administered during culture exponential growth phase, reduces cell growth, evaluated as cell number/ml, as well as DNA synthesis, evaluated through incorporation of trititated thymidine (Tab. 4 and 5).

[5] = tested on: U266, multiple myleopma; test: Inhibition of proliferation of neoplastic cells (Trypan Blue count), U266; assay type: cell-based, human
Protocol: (§6) Human derived neoplastic cell, obtained from Istituto Zooprofilattico of Brescia, were cultivated. The cells used for the experiment were: U266, multiple myleopma, HeLa, uterine cervix tumor, K562, chronic myeloid leukemia cells. HeLa and K562 were cultivated in RPMI+10% FCS, while those of U266 line were cultivated in RPMI+15% FCS, both media containing Penicilline/Streptomycine (50 U/mL and 50 μg/mL). Cells were plated in 6-wells plates (Falcon). Analysis were performed in cells having 50% confluence.
(§7) Each cell line was treated with PCL according to the folowing schemes:
(§8) a) 1 mM PLC for 24 hours (FIGS. 1-3); 1 mM PLC for 48 hours (FIGS. 1-3);
[…] 4-6).
(§9) At the end of each treatment, cells were counted in Burker chamber in the presence of Trypan Blue 0.5%, diluted 1:2. Count was made for each experimental group on samples coming from three wells.

[6] = tested on: K562, chronic myeloid leukemia cells; test: Inhibition of proliferation of neoplastic cells (Trypan Blue count), K562; assay type: cell-based, human
Protocol: as §6, §7, §8
[…] 4-6).
as §9

[7] = tested on: SMC isolated from normotensive rats (WKY); test: Apoptotic cell count after Hoechst 33258 staining, WKY SMC; assay type: cell-based, rat
Protocol: as §3, §4
In WKY cultures, apoptosis percentage is negligible (tab. 6)

[8] = tested on: smooth muscular cells (SMC) isolated from aortae of spontaneously hypertensive rats (SHR); test: Cell growth (cell number/ml) of cultured aortic SMC from SHR; assay type: cell-based, rat
Protocol: as §3, §5

[9] = tested on: SMC isolated from normotensive rats (WKY); test: DNA synthesis by tritiated thymidine incorporation, WKY SMC; assay type: cell-based, rat; conditions: culture day 6
Protocol: as §3, §5

[10] = tested on: SMC isolated from normotensive rats (WKY); test: Cell growth (cell number/ml) of cultured aortic SMC from WKY; assay type: cell-based, rat
Protocol: as §3, §5

[11] = tested on: HeLa, uterine cervix tumor; test: Inhibition of proliferation of neoplastic cells (Trypan Blue count), HeLa; assay type: cell-based, human; parameters: inhibition of proliferation after removal of PLC: dose or concentration left out as unconfirmed
Protocol: as §6, §7, §8
[…] 4-6).
as §9

## CCOC(=O)[C@H](CCc1ccccc1)N[C@@H](C)C(=O)N1CCC[C@H]1C(=O)O [Enalapril]
[1]; intima tunica
  +Nuclei/total nuclei % (anti-bromodeoxyuridine positive): No significant differences
[1]; intima tunica, listed as enalapril
  +Nuclei/total nuclei % (anti-bromodeoxyuridine positive): 2.43 ± 0.39 (c) %
[1]; tunica media
  +Nuclei/total nuclei % (anti-bromodeoxyuridine positive): No significant differences
[1]; tunica media, listed as enalapril
  +Nuclei/total nuclei % (anti-bromodeoxyuridine positive): 0.27 ± 0.09%
[2]
  Reduction (% to CTR) of intima relative volume: 26.14%
  Intima volume/wall (percentage ratio between intima volume and aorta wall volume): 21.96 ± 1.20 ^(e) %

## CCC(=O)O[C@H](CC(=O)[O-])C[N+](C)(C)C [PLC, propionyl L-carnitine]
[3]; basal conditions
  apoptotic cell percentage: 2%
[3]; oxidative stress
  apoptotic cell percentage: 10%
[4]
  tritiated thymidine incorporation: 1.81E−05 μCi/μgDNA
[1]; tunica media, 3 days after de-endothelialization, PLC 120 mg/Kg p.c. die
  Reduction % of BrDU-positive nuclei against control: 59.3%
[1]; tunica media, 3 days after de-endothelialization, PLC 120 mg/Kg p.c. die, ± s.e.m
  positive nuclei/total nuclei % (anti-bromodeoxyuridine positive): 2.59 ± 0.56%
[2]
  Reduction (% to CTR) of intima relative volume: 31.11%
  Intima volume/wall (percentage ratio between intima volume and aorta wall volume): 20.48 ± 2.73 ^(d) %
[5]; U266, 1 mM PLC for 24 hours
  inhibition of proliferation with respect to the control: 46%
[5]; U266, 1 mM PLC for 48 hours
  inhibition of proliferation with respect to the control: 26%
[5]; U266, 24 hours with 1 mM PLC, then fresh medium without the substance
  inhibition of proliferation after removal of PLC: 26%
[6]; K562, 1 mM PLC for 24 hours
  inhibition of proliferation with respect to the control: 37%
[6]; K562, 1 mM PLC for 48 hours
  inhibition of proliferation with respect to the control: 39%
[6]; K562, 24 hours with 1 mM PLC, then fresh medium without the substance
  inhibition of proliferation after removal of PLC: 21%
[7]; basal conditions
  apoptotic cell percentage: 0%
[7]; oxidative stress
  apoptotic cell percentage: 2%
[8]; culture day 2
  cell number/ml: 7*10^4 ± 4 /ml
[8]; culture day 3
  cell number/ml: 4*10^4 ± 2 /ml
[8]; culture day 4
  cell number/ml: 7*10^4 ± 4 /ml
[8]; culture day 6
  cell number/ml: 20*10^4 ± 5 /ml
[9]
  tritiated thymidine incorporation: 2.56E−05 μCi/μgDNA
[10]; culture day 2
  cell number/ml: 3*10^4 ± 2 /ml
[10]; culture day 3
  cell number/ml: 4*10^4 ± 2 /ml
[10]; culture day 4
  cell number/ml: 6*10^4 ± 2 /ml
[10]; culture day 6
  cell number/ml: 8*10^4 ± 3 /ml
[11]; 1 mM PLC for 24 hours
  inhibition of proliferation with respect to the control: 25%
[11]; 1 mM PLC for 48 hours
  inhibition of proliferation with respect to the control: 17%
[11]; 24 hours PLC, then fresh medium without the substance
  inhibition of proliferation after removal of PLC: 20%
